Among the data in PubChem BioAssay AID2305 (GlaxoSmithKline (GSK), 2010) are IC50 values, retold here.

pIC50: −log10 of the molar value.

As a reminder, the pIC50 is the IC50 on a negative log10 scale, so that one unit is a factor of ten. Read a low pIC50 as a high IC50.

This assay has as its system P. falciparum 3D7 growth, pLDH absorbance. Put plainly: blood-stage malaria parasite growth potency – strain 3D7, dose response (AID 2305).
For the compound `COc1nc(N)ncc1C(=O)NC1CN2CCC1CC2` (stereo unspecified), the pIC50 is 6.62.

For `CC(C)c1ccc(NC(=O)c2ccc(NCCCN(C)Cc3ccccc3)c([N+](=O)[O-])c2)cc1`, the pIC50 is 6.17.

In the case of `Cc1ccc(NC(=O)NC2CCN(c3ccnc4cc(Cl)ccc34)CC2)cc1`, the pIC50 is 6.49.

For `CN1CCN(CCCN(Cc2ccc(-c3ccc(CNCc4ccc5c(c4)OCO5)cc3)cc2)C(=O)Nc2ccccc2)CC1`, the pIC50 is 6.15.

`COc1ccc2nccc([C@@H](O)CN3CCC(NC(=O)/C=C/c4c[nH]c5c(C)cccc45)CC3)c2c1` gave a pIC50 of 6.89.

The compound `O=C(NCCc1ccc(F)cc1)c1ccc(N2CCN(c3ccncc3)CC2)nc1` gave a pIC50 of 5.85.

`Cc1cccc2[nH]c(-c3cccc(-c4ccc(NC(=O)c5cccnc5)cc4)c3)nc12` had a pIC50 of 6.23.

Compound `O=C(c1ccc(Br)o1)N1N=C(c2cccs2)CC1c1ccc(Br)cc1` (stereo unspecified) gave a negative-log IC50 (pIC50) of 6.29. The pIC50 values of the last two compounds are within 0.2 log units of each other.

Take `Cc1ccc(NC(=O)c2cccc(C#N)c2)cc1-c1ccc(C(=O)Nc2ccncc2)cc1`: the pIC50 was 6.16.

As for `Oc1ccc(Nc2nc(NCc3ccccc3)c3ccccc3n2)cc1`, the pIC50 was 6.72.

On to `O=S(=O)(c1ccc(NC(=S)NN=Cc2ccccn2)cc1)N1CCCCC1`, for which the pIC50 is 6.14.

Compound `CC(NC(=O)c1ccc(O)c(-c2ccc(Cl)c(Cl)c2)c1)C(=O)NCCN1CCOCC1` (stereo unspecified) showed a negative logarithm of the IC50 (pIC50) of 6.02. The pIC50 values of the last two compounds are within 0.2 log units of each other.

With `CC1CN(Cc2cccc(F)c2)CCN1c1ccc(NC(=O)c2cccs2)cc1` (stereo unspecified), the pIC50 is 6.35.

Regarding `COc1ccc(CCN2CCC(NCc3cccc(N(C)C)c3)CC2)cc1`, the pIC50 is 5.88.

For `CCN1CCN(c2cc(C)c3cc(NC(=O)c4ccc([N+](=O)[O-])c(C)c4)ccc3n2)CC1`, the pIC50 is 6.19.

Compound `CCCN(CCCCCCNCCc1ccc(Cl)cc1)CCc1ccc(O)c(O)c1` had a pIC50 of 6.03.

Regarding `C=CCc1cccc(CN2CCC(c3cc(=O)[nH]c(-c4ccccn4)n3)CC2)c1O`, the pIC50 was 5.96.

For the compound `O=C(/C=C/c1ccc(C(F)(F)F)cc1)NCCCCCN1CCCN(C(=O)Nc2ccc(Cl)c(C(F)(F)F)c2)CC1`, the pIC50 was 6.70.

Turning to `NC(=O)c1cccc(C(=O)Nc2ccc(-c3cccc(-c4nc5ccc(F)cc5[nH]4)c3)cc2)c1`, the pIC50 is 6.06.

The compound `Cc1cc(CN2CC[C@H](NC(=O)c3ccc(Cl)c(Cl)c3)C2)ccc1OC1CCN(C)C1` (stereo partly specified) showed a pIC50 of 6.02.

Turning to `Oc1ccc(Nc2nc(N3CCCC3)c3ccccc3n2)cc1`, the pIC50 was 6.57.

`Cc1cc(C(=O)CN2C(=O)NC(C)(c3cccc4ccccc34)C2=O)c(C)n1Cc1ccco1` (stereo unspecified) had a pIC50 of 6.20.

As for `Fc1ccc([C@H]2N=C(SCCSC3=N[C@H](c4ccc(F)cc4)[C@H](c4ccc(F)cc4)N3)N[C@H]2c2ccc(F)cc2)cc1`, the pIC50 was 6.04.

`Fc1cccc(C=NNc2ccnc3ccc(C(F)(F)F)cc23)c1` had a pIC50 of 6.14. The pIC50 values of the last two compounds are within 0.2 log units of each other.

With `c1ccc2[nH]c(-c3ccc(-c4ccc(CN5CCCCC5)cc4)cc3)nc2c1`, the pIC50 is 6.12.

Compound `O=C(N[C@@H](Cc1ccccc1)[C@H](O)CNCCC(F)(F)F)c1cccc(CCC2CC2)c1` showed a pIC50 of 5.99.

Compound `Oc1ccc(CCNc2nc(NCCCOc3ccccc3-c3cccc(C(F)(F)F)c3)nc(N3CCNCC3)n2)cc1` had a pIC50 of 6.06.

The compound `CCc1ccc(CN2CCCCC(NC(=O)c3cc(-c4ccccc4F)cs3)C2)cc1` (stereo unspecified) showed a pIC50 of 5.94.

Compound `Cc1cccc(CNc2nc(C)cc(N[C@@H](Cc3ccccc3)C(=O)NCCOc3ccccc3)n2)c1` had a pIC50 of 6.04.

`CCC(C)NC(=O)Nc1ccc(-c2cccc(-c3nc4ccc(C(F)(F)F)cc4[nH]3)c2)cc1` (stereo unspecified) gave a pIC50 of 6.21.

For the compound `CCNC(=O)Nc1cccc(-c2cccc(-c3nc4c(C)cccc4[nH]3)c2)c1`, the pIC50 was 5.98.

Turning to `O=C(NCCCN1CCCCC1)c1cccc(Nc2nccc(Nc3ccc(Oc4ccccc4)cc3)n2)c1`, the pIC50 is 6.09.

As to `O=C(CNC1CCCCC1)Nc1cccc(C(=O)Nc2cccc(C(F)(F)F)c2)c1`, the pIC50 is 6.38. This pIC50 is 0.29 log units higher than that of the compound before.

`O=C(N[C@H](Cc1ccc(Cl)cc1)C(=O)N1CCN(c2ccnc3cc(Cl)ccc23)CC1)[C@H]1Cc2ccccc2CN1` showed a pIC50 of 6.38.

On to `CCOc1cc(C)ccc1C1CCN(CCCCNC(=O)c2nc(-c3ccc(C(F)(F)F)cc3)[nH]c2C)CC1`, for which the pIC50 is 6.14.

In the case of `CCOc1c(Br)cc(C)cc1CNCCCNc1nc2ccccc2[nH]1`, the pIC50 is 6.17. The pIC50 values of the last two compounds are within 0.2 log units of each other.

As for `FC(F)(F)c1ccccc1OCc1cc(-c2ccncc2)c(COc2ccccc2C(F)(F)F)cc1C1=CCNCC1`, the pIC50 was 6.05.

In the case of `COc1cc2nccc(Nc3ccc(OCc4ccccc4)cc3)c2cc1OC`, the pIC50 is 6.70.

For the compound `Cc1cccc2[nH]c(-c3cccc(-c4cccc(NC(=O)CNC(=O)c5ccc(O)cc5)c4)c3)nc12`, the pIC50 was 6.00. This pIC50 is 0.70 log units lower than that of the compound before.

In the case of `Cc1ccc(NC(=O)c2cccc(CN3CCCN(Cc4cccc(O)c4)CC3)c2)cc1F`, the pIC50 was 6.15.

As for `Cc1cc(N[C@@H](CC(C)C)C(=O)NCc2cccc(F)c2)nc(NCCc2ccc(F)cc2)n1`, the pIC50 is 5.83.

Compound `OC1(c2ccccc2)CCN(Cc2cccc(-c3c[nH]c4nc(NC5CCCC5)ncc34)c2)C1` (stereo unspecified) had a pIC50 of 6.04. Against the preceding compound, the pIC50 is 0.21 log units higher.

The compound `COc1ccc2nc(C)cc(NN=Cc3ccncc3)c2c1` showed a pIC50 of 6.15.

`CCN(CC)C(=NCCCCCCN=C(/N=C(/N)Nc1ccc(C)cc1)N(CC)CC)/N=C(/N)Nc1ccc(C)cc1`: the pIC50 was 6.27. This pIC50 and that of the compound before are within 0.2 log units of each other.

As for `COCCNCc1ncsc1-c1ccc2c(Nc3cc(O)ccc3C)ccnc2c1`, the pIC50 is 6.15.

With `COc1ccc(C=CC(=O)NC(=O)c2ccccc2OC(=O)c2ccccc2)cc1OC`, the pIC50 was 6.04. The pIC50 values of the last two compounds are within 0.2 log units of each other.

`COc1ccc(C(C(=O)NC2CCN(C[C@H](O)c3ccnc4ccc(OC)cc34)CC2)N2CCN(c3ccc(Cl)c(Cl)c3)CC2)cc1` (stereo partly specified) had a negative-log IC50 (pIC50) of 6.70. Against the preceding compound, the pIC50 is 0.66 log units higher.

As to `CC(C)(CNCc1ccc(Cl)cc1)c1nc(-c2ccc(Cl)c(O)c2)c(-c2ccncc2)[nH]1`, the negative-log IC50 (pIC50) is 6.32.

On to `Cc1nc2ccc3ccc(CNc4ccc5c(c4)CN([C@@H](CCC(=O)O)C(=O)O)C5=O)cc3c2c(=O)[nH]1`, for which the pIC50 was 6.80.

On to `COc1ccc2ncc(F)c(CCN3CCC(CNC(=O)C(=O)c4c[nH]c5ccccc45)CC3)c2n1`, for which the pIC50 is 6.41.

The compound `O=C(Nc1ccc(S(=O)(=O)N2CCCCC2)cc1)c1cc(-c2cc(Cl)ccc2O)n[nH]1` showed a pIC50 of 6.09.

For `O=C(NC1CCN(c2ccnc3cc(Cl)ccc23)C1)c1ccccc1F` (stereo unspecified), the pIC50 was 6.01.

With `Cc1cccc2[nH]c(-c3cccc(-c4ccc(NC(=O)Nc5cccc(C#N)c5)cc4)c3)nc12`, the pIC50 was 6.72.

Compound `O=C(/C=C/c1ccc(Cl)c(Cl)c1)NC[C@@H]1CCC[C@H](CN2CCC(c3c[nH]c4ccccc34)CC2)C1` had a pIC50 of 6.14.

As to `CN(C)CCNC(=O)NC1CN(c2ncnc3cc(-c4ccccc4)sc23)C1`, the pIC50 is 6.24.

With `CNC(=O)c1ccc2nc(-c3ccc(-c4ccccc4)cc3)n(CC3CCN(CC4CCCC4)CC3)c2c1`, the pIC50 is 7.40.

As for `O=C(NCCCCN1CCN(c2ccc3c(c2)CCC3)CC1)c1ccc(NC(=O)c2ccc(Cl)cc2)cc1`, the pIC50 was 6.17.

In the case of `NC(CC1CC(=O)N1CC(=O)O)C(=O)O` (stereo unspecified), the pIC50 is 6.80.

Regarding `NOCCCCOc1ccc(Br)cc1`, the negative logarithm of the IC50 (pIC50) was 6.72. This pIC50 and that of the compound before are within 0.2 log units of each other.

In turn, `CCOc1ccccc1CCNC(C)Cc1ccc(C(=O)Nc2ccc(CC(C)NCCc3cccc(Cl)c3)cc2)cc1` (stereo unspecified) had a pIC50 of 6.27.

Compound `CNCc1ccc2nc(-c3coc(Cc4cc(Cl)ccc4OCC(C)C)n3)[nH]c2c1` had a pIC50 of 6.08. This pIC50 and that of the compound before are within 0.2 log units of each other.
